Measurements taken from article PMC10046369, “Low-Affinity/High-Selectivity Dopamine Transport Inhibition Sufficient to Rescue Cognitive Functions in the Aging Rat” (Biomolecules, 2023).

Assays:
Test in all cases: biochemical
Design in all cases: KINOMEscan competition binding panel, per cent of control
Settings in all cases: read-out: %Ctrl @ 2800nM
CAMK2A = CAMK2A (Homo sapiens, UniProt Q9UQM7)
Summary of the method: (§1)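 Values are expressed as percent of control, calculated as ((test − positive control)/(negative control − positive control)) × 100, so lower numbers mean stronger hits. Binding was measured by KINOMEscan competition assay in a 450-kinase human panel including disease mutants, using the contractor's validated protocol.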

CAMKK1 = CAMKK1 (Homo sapiens, UniProt Q8N5S9)
Summary of the method: as §1

CSF1R = CSF1R (Homo sapiens, UniProt P07333)
Summary of the method: as §1

CSNK2A1 = CSNK2A1 (Homo sapiens, UniProt P68400)
Chain of CSNK2A1 (P68400 whole entry): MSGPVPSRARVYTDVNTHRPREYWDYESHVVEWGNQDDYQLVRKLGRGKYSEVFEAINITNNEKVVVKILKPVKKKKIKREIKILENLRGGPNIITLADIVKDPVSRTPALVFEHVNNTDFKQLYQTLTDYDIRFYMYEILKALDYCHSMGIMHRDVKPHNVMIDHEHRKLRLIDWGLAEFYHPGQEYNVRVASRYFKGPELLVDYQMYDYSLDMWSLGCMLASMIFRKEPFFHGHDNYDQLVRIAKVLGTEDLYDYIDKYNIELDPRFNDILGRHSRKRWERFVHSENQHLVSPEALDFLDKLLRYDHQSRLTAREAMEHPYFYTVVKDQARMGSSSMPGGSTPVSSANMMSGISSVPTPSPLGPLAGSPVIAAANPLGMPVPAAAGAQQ
Summary of the method: as §1

DMPK = DMPK (Homo sapiens, UniProt Q09013)
Summary of the method: as §1

FAK = target: T1, FAK (Homo sapiens, UniProt Q05397)
T1 construct: gene PTK2
T1 sequence (Q05397 whole entry): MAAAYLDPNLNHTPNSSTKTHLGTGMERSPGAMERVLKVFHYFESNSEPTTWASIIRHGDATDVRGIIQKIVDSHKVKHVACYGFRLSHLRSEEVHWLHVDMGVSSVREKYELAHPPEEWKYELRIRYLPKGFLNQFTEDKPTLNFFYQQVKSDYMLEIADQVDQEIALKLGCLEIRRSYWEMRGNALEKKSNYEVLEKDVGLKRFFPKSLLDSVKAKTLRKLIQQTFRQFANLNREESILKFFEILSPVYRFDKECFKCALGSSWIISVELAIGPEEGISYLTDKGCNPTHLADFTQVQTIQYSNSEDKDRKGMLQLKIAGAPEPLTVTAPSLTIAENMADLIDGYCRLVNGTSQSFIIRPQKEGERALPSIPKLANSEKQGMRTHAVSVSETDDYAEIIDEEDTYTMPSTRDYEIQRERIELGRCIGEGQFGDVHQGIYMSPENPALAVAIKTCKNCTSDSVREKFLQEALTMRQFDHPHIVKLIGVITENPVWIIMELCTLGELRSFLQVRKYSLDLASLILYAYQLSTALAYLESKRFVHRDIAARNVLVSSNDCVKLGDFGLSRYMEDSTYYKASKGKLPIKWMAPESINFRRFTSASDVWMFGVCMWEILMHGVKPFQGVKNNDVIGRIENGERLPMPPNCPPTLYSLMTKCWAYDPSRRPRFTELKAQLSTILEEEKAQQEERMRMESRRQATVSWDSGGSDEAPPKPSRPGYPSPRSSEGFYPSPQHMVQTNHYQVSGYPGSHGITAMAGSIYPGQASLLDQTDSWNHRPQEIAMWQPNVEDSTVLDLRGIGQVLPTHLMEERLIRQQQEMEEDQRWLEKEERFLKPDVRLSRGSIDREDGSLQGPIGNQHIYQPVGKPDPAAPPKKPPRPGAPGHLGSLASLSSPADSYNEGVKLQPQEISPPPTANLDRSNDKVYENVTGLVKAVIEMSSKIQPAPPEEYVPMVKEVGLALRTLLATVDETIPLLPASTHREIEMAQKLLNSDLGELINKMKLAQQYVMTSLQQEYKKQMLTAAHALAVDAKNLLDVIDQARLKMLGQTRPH
Summary of the method: as §1

FGFR1 = FGFR1 (Homo sapiens, UniProt P11362)
Summary of the method: as §1

FGFR2 = FGFR2 (Homo sapiens, UniProt P21802)
Summary of the method: as §1

FLT3(ITD,F691L) = FLT3(ITD,F691L) (Homo sapiens, UniProt P36888, F691L/ITD)
Summary of the method: as §1

GRK2 = GRK2 (Homo sapiens, UniProt P25098)
Summary of the method: as §1

GSK3B = GSK3B (Homo sapiens, UniProt P49841)
Chain of GSK3B (P49841 whole entry): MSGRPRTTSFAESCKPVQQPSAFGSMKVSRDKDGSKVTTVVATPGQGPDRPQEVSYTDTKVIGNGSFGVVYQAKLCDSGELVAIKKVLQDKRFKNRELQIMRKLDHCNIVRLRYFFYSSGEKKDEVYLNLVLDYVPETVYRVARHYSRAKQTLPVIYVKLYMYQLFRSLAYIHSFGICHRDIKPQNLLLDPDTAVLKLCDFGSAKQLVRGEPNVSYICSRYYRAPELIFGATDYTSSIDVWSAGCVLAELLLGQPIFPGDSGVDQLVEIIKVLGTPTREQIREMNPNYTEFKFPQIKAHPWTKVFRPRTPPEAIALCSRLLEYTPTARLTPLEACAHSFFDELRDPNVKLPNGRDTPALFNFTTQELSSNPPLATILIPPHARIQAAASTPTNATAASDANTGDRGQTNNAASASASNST
Summary of the method: as §1

INSR = INSR (Homo sapiens, UniProt P06213)
Summary of the method: as §1

KIT(A829P) = KIT(A829P) (Homo sapiens, UniProt P10721, A829P)
Chain of KIT(A829P) (P10721 whole entry A829P): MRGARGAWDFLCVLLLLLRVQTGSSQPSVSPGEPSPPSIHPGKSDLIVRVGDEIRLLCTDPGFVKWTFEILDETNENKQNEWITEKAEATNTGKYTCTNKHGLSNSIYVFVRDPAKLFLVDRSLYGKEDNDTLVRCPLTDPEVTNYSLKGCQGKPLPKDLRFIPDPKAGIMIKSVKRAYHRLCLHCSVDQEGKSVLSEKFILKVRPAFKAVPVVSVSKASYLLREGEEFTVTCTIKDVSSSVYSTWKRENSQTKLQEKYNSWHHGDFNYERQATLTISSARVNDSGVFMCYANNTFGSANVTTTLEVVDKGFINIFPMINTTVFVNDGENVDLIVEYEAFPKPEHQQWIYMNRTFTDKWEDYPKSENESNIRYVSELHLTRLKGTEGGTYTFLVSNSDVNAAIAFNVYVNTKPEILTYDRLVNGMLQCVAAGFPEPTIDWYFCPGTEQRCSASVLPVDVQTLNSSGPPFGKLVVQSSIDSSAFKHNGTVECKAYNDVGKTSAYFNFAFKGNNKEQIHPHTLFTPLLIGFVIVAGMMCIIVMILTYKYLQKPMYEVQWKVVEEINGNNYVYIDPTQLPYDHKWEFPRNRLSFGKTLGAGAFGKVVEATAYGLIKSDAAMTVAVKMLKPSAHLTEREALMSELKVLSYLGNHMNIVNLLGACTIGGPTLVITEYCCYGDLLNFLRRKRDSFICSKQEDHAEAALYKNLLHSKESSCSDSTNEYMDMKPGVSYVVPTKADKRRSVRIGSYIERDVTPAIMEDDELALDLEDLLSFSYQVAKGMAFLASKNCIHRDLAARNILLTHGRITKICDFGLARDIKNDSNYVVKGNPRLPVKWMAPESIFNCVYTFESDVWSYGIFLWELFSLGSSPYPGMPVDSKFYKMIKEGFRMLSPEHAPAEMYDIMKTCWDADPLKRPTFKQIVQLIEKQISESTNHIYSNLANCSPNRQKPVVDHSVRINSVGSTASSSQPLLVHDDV
Summary of the method: as §1

MYO3A = MYO3A (Homo sapiens, UniProt Q8NEV4)
Summary of the method: as §1

PIK3CA(E545K) = PIK3CA(E545K) (Homo sapiens, UniProt P42336, E545K)
Chain of PIK3CA(E545K) (P42336 whole entry E545K): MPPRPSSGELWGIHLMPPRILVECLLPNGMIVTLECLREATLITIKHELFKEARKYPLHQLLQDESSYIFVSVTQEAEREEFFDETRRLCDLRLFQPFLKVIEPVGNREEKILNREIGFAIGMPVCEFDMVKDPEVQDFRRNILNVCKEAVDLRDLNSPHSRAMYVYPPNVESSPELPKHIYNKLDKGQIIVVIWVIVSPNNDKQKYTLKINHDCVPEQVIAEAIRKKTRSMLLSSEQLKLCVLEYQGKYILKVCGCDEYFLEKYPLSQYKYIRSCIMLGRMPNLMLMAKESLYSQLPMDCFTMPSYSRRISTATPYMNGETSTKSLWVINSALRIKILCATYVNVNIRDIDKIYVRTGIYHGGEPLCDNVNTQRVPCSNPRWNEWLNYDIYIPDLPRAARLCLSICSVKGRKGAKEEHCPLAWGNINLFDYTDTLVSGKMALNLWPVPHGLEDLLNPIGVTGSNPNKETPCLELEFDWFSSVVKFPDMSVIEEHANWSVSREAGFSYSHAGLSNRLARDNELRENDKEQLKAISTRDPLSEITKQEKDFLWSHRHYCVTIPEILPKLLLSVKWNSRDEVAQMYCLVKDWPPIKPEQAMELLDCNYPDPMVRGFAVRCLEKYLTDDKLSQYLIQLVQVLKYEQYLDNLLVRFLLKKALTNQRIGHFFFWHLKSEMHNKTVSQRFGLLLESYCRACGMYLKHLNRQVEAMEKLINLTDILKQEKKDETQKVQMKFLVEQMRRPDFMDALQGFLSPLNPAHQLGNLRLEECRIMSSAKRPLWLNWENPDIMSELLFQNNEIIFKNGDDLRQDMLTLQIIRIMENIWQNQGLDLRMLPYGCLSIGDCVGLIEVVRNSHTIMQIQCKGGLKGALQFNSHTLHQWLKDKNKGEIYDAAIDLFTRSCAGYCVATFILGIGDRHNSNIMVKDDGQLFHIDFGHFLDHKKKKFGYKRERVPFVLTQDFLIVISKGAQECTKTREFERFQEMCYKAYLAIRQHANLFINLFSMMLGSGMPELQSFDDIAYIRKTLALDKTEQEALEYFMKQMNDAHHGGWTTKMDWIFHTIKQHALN
Summary of the method: as §1

PIK3CA(H1047Y) = PIK3CA(H1047Y) (Homo sapiens, UniProt P42336, H1047Y)
Chain of PIK3CA(H1047Y) (P42336 whole entry H1047Y): as the sequence (P42336 whole entry E545K) above, with K545E, H1047Y counted along it
Summary of the method: as §1

PIK3CA(Q546K) = PIK3CA(Q546K) (Homo sapiens, UniProt P42336, Q546K)
Chain of PIK3CA(Q546K) (P42336 whole entry Q546K): as the sequence (P42336 whole entry E545K) above, with K545E, Q546K counted along it
Summary of the method: as §1

PRKCQ = PRKCQ (Homo sapiens, UniProt Q04759)
Summary of the method: as §1

PRKD1 = PRKD1 (Homo sapiens, UniProt Q15139)
Summary of the method: as §1

PRKR = target: T2, PRKR (Homo sapiens, UniProt P19525)
T2 construct: gene EIF2AK2
Summary of the method: as §1

PYK2 = target: T3, PYK2 (Homo sapiens, UniProt Q14289)
T3 construct: gene PTK2B
Summary of the method: as §1

ROS1 = ROS1 (Homo sapiens, UniProt P08922)
Summary of the method: as §1

[1] = target: T4, RSK3(Kin.Dom.1-N-terminal) (Homo sapiens, UniProt Q15349)
T4 construct: gene RPS6KA2; Kin.Dom.1-N-terminal
Summary of the method: as §1

TAK1 = target: T5, TAK1 (Homo sapiens, UniProt O43318)
T5 construct: gene MAP3K7
Summary of the method: as §1

TLK1 = TLK1 (Homo sapiens, UniProt Q9UKI8)
Chain of TLK1 (Q9UKI8 whole entry): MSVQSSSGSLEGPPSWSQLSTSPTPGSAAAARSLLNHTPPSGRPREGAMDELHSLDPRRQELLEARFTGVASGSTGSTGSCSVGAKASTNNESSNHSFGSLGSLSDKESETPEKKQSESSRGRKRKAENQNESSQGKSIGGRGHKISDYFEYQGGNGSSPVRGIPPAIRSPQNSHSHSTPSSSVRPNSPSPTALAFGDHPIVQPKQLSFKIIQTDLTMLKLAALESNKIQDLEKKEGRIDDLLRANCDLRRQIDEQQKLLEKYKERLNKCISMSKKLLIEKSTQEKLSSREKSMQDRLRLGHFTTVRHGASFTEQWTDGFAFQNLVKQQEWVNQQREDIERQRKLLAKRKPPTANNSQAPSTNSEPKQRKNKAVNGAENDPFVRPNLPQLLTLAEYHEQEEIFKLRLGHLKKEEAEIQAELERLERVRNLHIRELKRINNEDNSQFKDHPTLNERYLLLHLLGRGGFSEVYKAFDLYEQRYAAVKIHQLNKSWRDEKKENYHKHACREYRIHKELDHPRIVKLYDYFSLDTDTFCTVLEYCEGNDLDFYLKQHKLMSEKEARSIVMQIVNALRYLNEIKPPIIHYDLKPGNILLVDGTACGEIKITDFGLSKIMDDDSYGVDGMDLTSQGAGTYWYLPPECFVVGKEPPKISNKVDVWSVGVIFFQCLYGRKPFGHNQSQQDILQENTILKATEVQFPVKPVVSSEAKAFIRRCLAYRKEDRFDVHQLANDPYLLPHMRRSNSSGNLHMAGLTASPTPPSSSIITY
Summary of the method: as §1

TRKA = target: T6, TRKA (Homo sapiens, UniProt P04629)
T6 construct: gene NTRK1
Summary of the method: as §1

[O-][S@@+](Cc1cncs1)C(c1ccccc1)c1ccccc1 [S-CE-123, (S)-5-((Benzhydrylsulfinyl)Methyl)Thiazole]
remaining binding at 2.8 µM (CAMK2A): 93% | remaining binding at 2.8 µM (CAMKK1): 95% | remaining binding at 2.8 µM (CSF1R): 76% | remaining binding at 2.8 µM (CSNK2A1): 88% | remaining binding at 2.8 µM (DMPK): 96% | remaining binding at 2.8 µM (FAK): 100% | remaining binding at 2.8 µM (FGFR1): 100% | remaining binding at 2.8 µM (FGFR2): 87% | remaining binding at 2.8 µM (FLT3(ITD,F691L)): 50% | remaining binding at 2.8 µM (GRK2): 100% | remaining binding at 2.8 µM (GSK3B): 92% | remaining binding at 2.8 µM (INSR): 100% | remaining binding at 2.8 µM (KIT(A829P)): 98% | remaining binding at 2.8 µM (MYO3A): 96% | remaining binding at 2.8 µM (PIK3CA(E545K)): 82% | remaining binding at 2.8 µM (PIK3CA(H1047Y)): 100% | remaining binding at 2.8 µM (PIK3CA(Q546K)): 97% | remaining binding at 2.8 µM (PRKCQ): 100% | remaining binding at 2.8 µM (PRKD1): 92% | remaining binding at 2.8 µM (PRKR): 93% | remaining binding at 2.8 µM (PYK2): 100% | remaining binding at 2.8 µM (ROS1): 91% | remaining binding at 2.8 µM [1]: 100% | remaining binding at 2.8 µM (TAK1): 71% | remaining binding at 2.8 µM (TLK1): 91% | remaining binding at 2.8 µM (TRKA): 100%
